Test results as given in PubChem BioAssay (NCI).
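96-well plates; 48 h exposure; 5 concentrations. Endpoints by linear interpolation between flanking doses. Not reached: highest tested concentration assigned. Abbreviation: GI50, concentration required for 50% inhibition of growth. At the TGI there is no net growth.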

Columns and labels:
Experiment in all cases: inhibition of tumour cell growth, NCI panel, 48 h
HT29 colon = tested on: HT29 colon
OVCAR-8 ovarian = tested on: OVCAR-8 ovarian
RXF 393 renal = tested on: RXF 393 renal
SW-620 colon = tested on: SW-620 colon
NCI-H23 lung = tested on: NCI-H23 lung
OVCAR-4 ovarian = tested on: OVCAR-4 ovarian
COLO 205 colon = tested on: COLO 205 colon
A549 NSCLC = tested on: A549 NSCLC
KM12 colon = tested on: KM12 colon
A498 renal = tested on: A498 renal

SMILES | TGI (HT29 colon) [µM] | TGI (OVCAR-8 ovarian) [µM] | TGI (RXF 393 renal) [µM] | TGI (SW-620 colon) [µM] | TGI (NCI-H23 lung) [µM] | TGI (OVCAR-4 ovarian) [µM] | TGI (COLO 205 colon) [µM] | TGI (A549 NSCLC) [µM] | TGI (KM12 colon) [µM] | TGI (A498 renal) [µM] | GI50 (A498 renal) [nM] | GI50 (HT29 colon) [nM] | GI50 (RXF 393 renal) [nM] | GI50 (SW-620 colon) [nM] | GI50 (NCI-H23 lung) [nM] | GI50 (OVCAR-4 ovarian) [nM] | GI50 (COLO 205 colon) [nM] | GI50 (A549 NSCLC) [nM] | GI50 (KM12 colon) [nM] | GI50 (OVCAR-8 ovarian) [nM]
Cn1ncc2c(=O)[nH]c(-c3ccccc3)nc21 | > 100 | > 100 | > 100 | > 100 | > 100 | > 100 | > 100 | > 100 | > 100 |  |  |  |  |  |  |  |  |  |  | 
CCc1cc(C)cc2[n+]1CC=C2C | > 100 | > 100 | > 100 | > 100 | > 100 | > 100 | > 100 | > 100 | > 100 |  |  |  |  |  |  |  |  |  |  | 
N=C(N)SC(c1ccccc1)c1ccccc1 | 34.4 | 36.4 | 19.4 | 44.6 | 28.3 | 37.6 | 47.1 | 95.2 | 32.9 | 36.6 |  |  |  |  |  |  |  |  |  | 
O=C(Nc1ccc(-n2ccc3c(NC(=O)c4ccccc4)ncnc32)cc1)Nc1ccc(Cl)c(C(F)(F)F)c1 | 3.14 |  | 3.28 | 4.96 | 5.28 | 3.48 | 5.86 | 3.58 | 3.79 | 3.65 | 1510 | 1520 | 1500 | 2170 | 2190 | 1570 | 2630 | 1670 | 1620 | 
O=C1CC(c2ccccc2)NCCCCN2CC(CN1)C(C(O)c1ccccc1)C2=O (stereo not drawn) | > 100 | > 100 | > 100 | > 100 | > 100 | > 100 | > 100 | > 100 | > 100 | > 100 |  |  |  |  |  |  |  |  |  | 
NS(=O)(=O)c1ccc(C(=O)O)cc1 | > 100 | > 100 | > 100 | > 100 | > 100 | > 100 | > 100 | > 100 | > 100 | > 100 |  |  |  |  |  |  |  |  |  | 
COc1ccc2c(c1)C(=O)c1c-2n(CCCCl)c(=O)c2cc([N+](=O)[O-])ccc12 | > 100 | > 100 | > 100 |  |  | 33.6 | > 100 | > 100 |  |  | 1390 | 91.7 | 1580 | 123 | 107 | 224 | 902 | 196 | 271 | 289
COc1cc2c(cc1OCCCOc1cc3c(cc1OC)C(=O)N1CC(F)(F)C[C@H]1C=N3)N=C[C@@H]1CC(F)(F)CN1C2=O | 13 | 9.16 | 2.87 | 4.03 | 9.86 | 17.4 | 2.49 | > 100 | 13.6 | 2.65 | 1030 | 641 | 1380 | 469 | 492 | 3450 | 814 | 3790 | 2370 | 899
Cc1cccc(NC(N)=S)c1 | > 100 |  | > 100 |  | > 100 | > 100 |  |  | > 100 | > 100 |  |  |  |  |  |  |  |  |  | 
CC(C)(c1ccccc1)c1ccc(Oc2ccc3c(c2)-c2nc-3nc3[nH]c(nc4nc(nc5[nH]c(n2)c2ccc(Oc6ccc(C(C)(C)c7ccccc7)cc6)cc52)-c2cc(Oc5ccc(C(C)(C)c6ccccc6)cc5)ccc2-4)c2ccc(Oc4ccc(C(C)(C)c5ccccc5)cc4)cc32)cc1 | > 100 | > 100 | 97 | > 100 | > 100 |  | > 100 | > 100 | > 100 | > 100 |  |  |  |  |  |  |  |  |  | 
Nc1ccc([As](=O)(O)O)cc1 | > 100 | > 100 | > 100 | > 100 | > 100 | > 100 | > 100 | > 100 | > 100 | > 100 |  |  |  |  |  |  |  |  |  | 
Cc1cc(N2CCCCC2)nc(NCc2cc(Nc3ccnc4cc(Cl)ccc34)ccc2F)n1 | 2.21 | 4.68 | 3.47 | 3.59 | 4.92 | 2.95 | 1.4 | 3.22 | 3.29 | 0.999 | 178 | 795 | 1790 | 1450 | 1830 | 1390 | 329 | 1700 | 1690 | 2050
Cc1nc2ccccc2c(=O)n1Nc1ccc(C(=O)O)cc1 | > 100 | > 100 | > 100 | > 100 | > 100 | > 100 | > 100 | > 100 | > 100 | > 100 |  |  |  |  |  |  |  |  |  | 
CN(C)C=O.CN(C)C=O.CN1C(C(=O)Nc2ccccn2)=C([O-])c2ccccc2S1(=O)=O.CN1C(C(=O)Nc2ccccn2)=C([O-])c2ccccc2S1(=O)=O.[Cu+2] | > 100 | > 100 | 61.7 | > 100 | 57 | 78.7 | > 100 | > 100 | > 100 | 65.3 | 24200 |  |  |  |  |  |  |  |  | 
